Source: ChEMBL document CHEMBL3352542, “Synthesis, biological evaluation and molecular modeling study of 2-(1,3,4-thiadiazolyl-thio and 4-methyl-thiazolyl-thio)-quinazolin-4-ones as a new class of DHFR inhibitors” (Bioorg Med Chem Lett, 2014)
Activity calls are given as the source filed them.

Columns and labels:
UACC-257 = assay: Growth inhibition of human UACC257 cells at 10 uM after 48 hrs; assay type: functional
Dihydrofolate reductase = target: T1, Dihydrofolate reductase (Bos taurus, UniProt P00376); assay: Inhibition of bovine liver DHFR
T1 sequence (P00376 whole entry): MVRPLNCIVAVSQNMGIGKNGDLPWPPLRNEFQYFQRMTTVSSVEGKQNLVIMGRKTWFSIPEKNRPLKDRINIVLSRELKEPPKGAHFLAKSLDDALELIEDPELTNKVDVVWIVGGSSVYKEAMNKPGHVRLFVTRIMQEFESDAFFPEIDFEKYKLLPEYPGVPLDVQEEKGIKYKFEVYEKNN

A498 = assay: Growth inhibition of human A498 cells at 10 uM after 48 hrs; assay type: functional
LOX IMVI = assay: Growth inhibition of human LOXIMVI cells at 10 uM after 48 hrs; assay type: functional
Bacillus subtilis = assay: Antimicrobial activity against Bacillus subtilis assessed as inhibition zone at 200 ug/disk after 24 hrs by disc-diffusion method; assay type: functional; conditions: read-out: IZ
CCRF-CEM = assay: Growth inhibition of human CCRF-CEM cells at 10 uM after 48 hrs; assay type: functional
Hs-578T = assay: Growth inhibition of human Hs 578T cells at 10 uM after 48 hrs; assay type: functional
786-0 = assay: Growth inhibition of human 786-0 cells at 10 uM after 48 hrs; assay type: functional
SF-268 = assay: Growth inhibition of human SF268 cells at 10 uM after 48 hrs; assay type: functional
PC-3 = assay: Growth inhibition of human PC3 cells at 10 uM after 48 hrs; assay type: functional
NCI-H226 = assay: Growth inhibition of human NCI-H226 cells at 10 uM after 48 hrs; assay type: functional
OVCAR-3 = assay: Growth inhibition of human OVCAR3 cells at 10 uM after 48 hrs; assay type: functional
T47D = assay: Growth inhibition of human T47D cells at 10 uM after 48 hrs; assay type: functional
Malme-3M = assay: Growth inhibition of human MALME-3M cells at 10 uM after 48 hrs; assay type: functional
K562 = assay: Growth inhibition of human K562 cells at 10 uM after 48 hrs; assay type: functional
M14 = assay: Growth inhibition of human M14 cells at 10 uM after 48 hrs; assay type: functional
OVCAR-8 = assay: Growth inhibition of human OVCAR8 cells at 10 uM after 48 hrs; assay type: functional
MOLT-4 = assay: Growth inhibition of human MOLT4 cells at 10 uM after 48 hrs; assay type: functional
SR = assay: Growth inhibition of human SR cells at 10 uM after 48 hrs; assay type: functional
SK-MEL-5 = assay: Growth inhibition of human SK-MEL-5 cells at 10 uM after 48 hrs; assay type: functional
ACHN = assay: Growth inhibition of human ACHN cells at 10 uM after 48 hrs; assay type: functional
SF-295 = assay: Growth inhibition of human SF295 cells at 10 uM after 48 hrs; assay type: functional
HT-29 = assay: Growth inhibition of human HT-29 cells at 10 uM after 48 hrs; assay type: functional
OVCAR-4 = assay: Growth inhibition of human OVCAR4 cells at 10 uM after 48 hrs; assay type: functional
HCT-15 = assay: Growth inhibition of human HCT15 cells at 10 uM after 48 hrs; assay type: functional
BT-549 = assay: Growth inhibition of human BT549 cells at 10 uM after 48 hrs; assay type: functional
Staphylococcus aureus = assay: Antimicrobial activity against Staphylococcus aureus assessed as inhibition zone at 200 ug/disk after 24 hrs by disc-diffusion method; assay type: functional; conditions: read-out: IZ
SF-539 = assay: Growth inhibition of human SF539 cells at 10 uM after 48 hrs; assay type: functional
UACC-62 = assay: Growth inhibition of human UACC62 cells at 10 uM after 48 hrs; assay type: functional
NCI-H23 = assay: Growth inhibition of human NCI-H23 cells at 10 uM after 48 hrs; assay type: functional
U-251 = assay: Growth inhibition of human U251 cells at 10 uM after 48 hrs; assay type: functional
HCT-116 = assay: Growth inhibition of human HCT116 cells at 10 uM after 48 hrs; assay type: functional
MDA-MB-468 = assay: Growth inhibition of human MDA-MB-468 cells at 10 uM after 48 hrs; assay type: functional
KM12 = assay: Growth inhibition of human KM12 cells at 10 uM after 48 hrs; assay type: functional
UO-31 = assay: Growth inhibition of human UO31 cells at 10 uM after 48 hrs; assay type: functional
A549 = assay: Growth inhibition of human A549 cells at 10 uM after 48 hrs; assay type: functional
CAKI-1 = assay: Growth inhibition of human CAKI-1 cells at 10 uM after 48 hrs; assay type: functional
Pseudomonas aeruginosa = assay: Antimicrobial activity against Pseudomonas aeruginosa assessed as inhibition zone at 200 ug/disk after 24 hrs by disc-diffusion method; assay type: functional; conditions: read-out: IZ
SN12C = assay: Growth inhibition of human SN12C cells at 10 uM after 48 hrs; assay type: functional
Candida albicans = assay: Antimicrobial activity against Candida albicans assessed as inhibition zone at 200 ug/disk after 24 hrs by disc-diffusion method; assay type: functional; conditions: read-out: IZ
Escherichia coli = assay: Antimicrobial activity against Escherichia coli assessed as inhibition zone at 200 ug/disk after 24 hrs by disc-diffusion method; assay type: functional; conditions: read-out: IZ
SNB-19 = assay: Growth inhibition of human SNB19 cells at 10 uM after 48 hrs; assay type: functional
NCI/ADR-RES = assay: Growth inhibition of human NCI-ADR-RES cells at 10 uM after 48 hrs; assay type: functional
HOP-92 = assay: Growth inhibition of human HOP92 cells at 10 uM after 48 hrs; assay type: functional
NCI-H460 = assay: Growth inhibition of human NCI-H460 cells at 10 uM after 48 hrs; assay type: functional
SNB-75 = assay: Growth inhibition of human SNB75 cells at 10 uM after 48 hrs; assay type: functional
SW-620 = assay: Growth inhibition of human SW620 cells at 10 uM after 48 hrs; assay type: functional
HCC 2998 = assay: Growth inhibition of human HCC2998 cells at 10 uM after 48 hrs; assay type: functional
RPMI-8226 = assay: Growth inhibition of human RPMI8226 cells at 10 uM after 48 hrs; assay type: functional
MDA-MB-435 = assay: Growth inhibition of human MDA-MB-435 cells at 10 uM after 48 hrs; assay type: functional
MCF7 = assay: Growth inhibition of human MCF7 cells at 10 uM after 48 hrs; assay type: functional
MDA-MB-231 = assay: Growth inhibition of human MDA-MB-231 cells at 10 uM after 48 hrs; assay type: functional
HL-60(TB) = assay: Growth inhibition of human HL-60(TB) cells at 10 uM after 48 hrs; assay type: functional
RXF 393 = assay: Growth inhibition of human RXF393 cells at 10 uM after 48 hrs; assay type: functional
OVCAR-5 = assay: Growth inhibition of human OVCAR5 cells at 10 uM after 48 hrs; assay type: functional
COLO 205 = assay: Growth inhibition of human COLO205 cells at 10 uM after 48 hrs; assay type: functional
TK-10 = assay: Growth inhibition of human TK10 cells at 10 uM after 48 hrs; assay type: functional
NCI-H522 = assay: Growth inhibition of human NCI-H522 cells at 10 uM after 48 hrs; assay type: functional

COc1cc2nc(Sc3sc(N)nc3C)n(-c3ccc(C)cc3)c(=O)c2cc1OC
8 mm: zone of inhibition at 200 µg/disc (Bacillus subtilis) | zone of inhibition at 200 µg/disc (Staphylococcus aureus) | zone of inhibition at 200 µg/disc (Pseudomonas aeruginosa) | zone of inhibition at 200 µg/disc (Candida albicans) | zone of inhibition at 200 µg/disc (Escherichia coli)
8 µM: IC50 (Dihydrofolate reductase)
inactive: growth inhibition (GI) (UACC-257) | growth inhibition (GI) (A498) | growth inhibition (GI) (LOX IMVI) | growth inhibition (GI) (CCRF-CEM) | growth inhibition (GI) (Hs-578T) | growth inhibition (GI) (786-0) | growth inhibition (GI) (SF-268) | growth inhibition (GI) (PC-3) | growth inhibition (GI) (NCI-H226) | growth inhibition (GI) (OVCAR-3) | growth inhibition (GI) (T47D) | growth inhibition (GI) (Malme-3M) | growth inhibition (GI) (K562) | growth inhibition (GI) (M14) | growth inhibition (GI) (OVCAR-8) | growth inhibition (GI) (MOLT-4) | growth inhibition (GI) (SR) | growth inhibition (GI) (SK-MEL-5) | growth inhibition (GI) (ACHN) | growth inhibition (GI) (SF-295) | growth inhibition (GI) (HT-29) | growth inhibition (GI) (OVCAR-4) | growth inhibition (GI) (HCT-15) | growth inhibition (GI) (BT-549) | growth inhibition (GI) (SF-539) | growth inhibition (GI) (UACC-62) | growth inhibition (GI) (NCI-H23) | growth inhibition (GI) (U-251) | growth inhibition (GI) (HCT-116) | growth inhibition (GI) (MDA-MB-468) | growth inhibition (GI) (KM12) | growth inhibition (GI) (UO-31) | growth inhibition (GI) (A549) | growth inhibition (GI) (CAKI-1) | growth inhibition (GI) (SN12C) | growth inhibition (GI) (SNB-19) | growth inhibition (GI) (NCI/ADR-RES) | growth inhibition (GI) (HOP-92) | growth inhibition (GI) (NCI-H460) | growth inhibition (GI) (SNB-75) | growth inhibition (GI) (SW-620) | growth inhibition (GI) (HCC 2998) | growth inhibition (GI) (RPMI-8226) | growth inhibition (GI) (MDA-MB-435) | growth inhibition (GI) (MCF7) | growth inhibition (GI) (MDA-MB-231) | growth inhibition (GI) (HL-60(TB)) | growth inhibition (GI) (RXF 393) | growth inhibition (GI) (OVCAR-5) | growth inhibition (GI) (COLO 205) | growth inhibition (GI) (TK-10) | growth inhibition (GI) (NCI-H522)
